Reference: PMC4860947 (Nature, 2016)

Legend:
[1] = system: C. glabrata PDR1 wild-type or PDR1^L280F strains; parameters: species or system Candida glabrata; details: in vivo
[2] = system: C. glabrata; type: in vivo, Candida glabrata; details: mice; fluconazole 100 mg/kg/day, 7 days
[3] = system: C. glabrata; experiment: Mouse disseminated fungal burden model; type: in vivo, Candida glabrata; details: mice, CgPDR1 wild-type strain; 25 mg/kg fluconazole (low FLU) alone
[4] = system: C. glabrata strains with wild-type or gain-of-function CgPDR1; type: cell-based, Candida glabrata; details: azole alone
[5] = system: C. glabrata adherence to CHO-Lec2 cells; experiment: Yeast adherence to CHO-Lec2 epithelial cells; type: cell-based, Candida glabrata; details: ketoconazole 40 µM alone, last 15 minutes

Compound	survival of G. mellonella larvae [1]	survival of G. mellonella larvae compared to vehicle [1]	fungal burden in the bladder and kidney [2]	tissue fungal burden [3]	sensitivity of CgPDR1 wild-type strain to azole on plates [4]	relative adherence of PDR1^L280F mutant to epithelial (CHO-Lec2) cells [5]
OC(Cn1cncn1)(Cn1cncn1)c1ccc(F)cc1F [fluconazole]	sensitive to fluconazole alone	did not significantly increase survival	significantly reduces fungal burden	poorly reduced tissue burden		
CC(=O)N1CCN(c2ccc(OCC3COC(Cn4ccnc4)(c4ccc(Cl)cc4Cl)O3)cc2)CC1 (stereo not drawn) [ketoconazole]					sensitive	reduced relative adherence to levels comparable to a PDR1 wild-type strain
